The values that follow come from patent US11179363B2, “Non-steroidal selective glucocorticoid receptor agonistic modulators (SEGRAMs) and uses thereof” (ASSOCIATION POUR LA RECHERCHE À L'IGBMC (ARI), priority 2017, dated 2021).

The subject of data set [1] is TPA-induced irritant contact dermatitis-like inflammation. Nature of the data set: TPA-induced irritant contact dermatitis-like inflammation of mouse ears. It is filed as in vivo, Balb/C mouse. Particulars: for TPA-induced ear skin inflammation, histological analysis: H&E, vs control; for TPA-induced ear skin inflammation, histological analysis / expression of TSLP in TPA-treated mouse epidermis (immunochemistry): data not shown; for expression of TSLP in TPA-treated mouse epidermis (immunochemistry): TSLP-specific antibody; for TPA-induced transcription of pro-inflammatory genes (CCL4, COX2, MMP13, IL-1β, IL-6, TNF-α, TSLP, IL-22, IL-23): ear extracts, q-RT-PCR, D10; for TPA-induced skin inflammation: topical 1 nmole/cm^2, 5 days co-treatment with TPA. As for the experimental part: Balb/C mouse ears were topically treated with TPA to induce an “irritant contact dermatitis-like inflammation”. Mice were treated for 4 days with TPA, then for 5 extra days (until D9) with either vehicle, TPA alone, TPA and Dex, TPA and CpdX or TPA and CpdX-D3. At D10, RNA transcripts were extracted from mouse ear skin samples and the transcripts of CCL4, COX2, MMP13, IL-1β, IL-6, TNF-α, TSLP, IL-22 and IL-23 were analyzed by q-RT-PCR. Ear skin was harvested, and histological (with H&E staining) and immunohistochemical (with anti-TSLP antibodies) analyses were carried out.

For data set [2], the system named is MC 903-induced atopic dermatitis (AD)-like inflammation. Nature of the data set: Calcipotriol (MC 903)-induced atopic dermatitis-like inflammation of mouse ears. In kind it is in vivo, Balb/C mouse. The conditions noted are these: for MC 903-induced ear skin inflammation, histological analysis: H&E, vs control; for expression of the TSLP lymphokine in MC 903-treated mouse epidermis (immunohistochemistry): data not shown; for MC 903-induced transcription of pro-inflammatory genes (MMP13, COX2, IL-1β, IL-6, IL-10, IL-13 and TSLP): ear extracts, q-RT-PCR, D23; for MC 903-induced skin inflammation: topical 1 nmole/cm^2, 8 days co-treatment with MC 903. As for the experimental part:
To investigate the CpdX anti-inflammatory activity in vivo, Balb/C mouse ears were topically treated with calcipotriol (MC 903, a vitamin D3 analogue), in order to induce an atopic dermatitis (AD)-like inflammation (Li et al., 2006. Proc Natl Acad Sci USA. 103(31):11736-41).
Mice were treated for 14 days with MC 903, and then for 8 extra days (until D22) with either MC 903 alone (control), MC 903 and Dex, MC 903 and CpdX, MC 903 and CpdX(eA), MC 903 and CpdX(eB), MC 903 and CpdX-D3, MC 903 and CpdX-D3(eA) and MC 903 and CpdX-D3(eB).
At D23, RNA transcripts were extracted from mouse ear skin samples and the transcripts of 7 cytokines (MMP13, COX2, IL-1β, IL-6, IL-10, IL-13 and TSLP) were analyzed by q-RT-PCR. Ear skin was harvested and histological (with H&E staining) and immunohistochemical (with anti-TSLP antibodies) analyses were carried out.

The subject of data set [3] is Aldara-induced psoriasis-like skin inflammation. Nature of the data set: Aldara-induced psoriasis-like skin inflammation of mouse ears. It is filed as in vivo, Balb/C mouse. Particulars: for Aldara-induced psoriasis-like skin inflammation, histological analyses: H&E staining; for induced expression of the Th17 cytokines IL-17a, IL-17c, IL-17f and IL-22: ear extracts, q-RT-PCR, D10; for Aldara-induced psoriasis-like skin inflammation: topical 1 nmole/cm^2, last 5 days of 9 days Aldara. As for the experimental part: Balb/C mouse ears were topically treated with Aldara® to induce a psoriasis-like skin inflammation ([…] et al., 2015. Br J Dermatol. 172(2):345-53). Mice were treated for 9 days with Aldara®, including a co-topical treatment for the last 5 days with either ethanol (Vehicle), Dex, CpdX or CpdX-D3. At D10, RNA transcripts were extracted from mouse ears and IL-17a, IL-17c, IL-17f and IL-22 transcripts were analyzed by q-RT-PCR. Ear skin samples were also harvested for histological analyses (with H&E staining).

The test system of data set [4] is collagen-induced Th17 rheumatoid arthritis-like inflammation. Briefly: Collagen-induced arthritis (CIA). In kind it is in vivo, mice (DBA-1 strain). The conditions noted are these: for hind paw thickness at the ankle level: i.p. 1 mg/kg daily for 10 days (T0 to T10); for RNA transcripts of pro-inflammatory genes in hind paws (IL-1β, IL-6, IL-17a, IL-17f, TNFα): i.p. 1 mg/kg daily, T10, q-RT-PCR. On the procedure: Mice were treated with collagen to induce a Th17 rheumatoid arthritis-like inflammation as described by Inglis et al. (2007. Arthritis Res Ther. 9(5):R113) and Geboes et al. (2009. Arthritis Rheum. 60(2):390-5).
Male mice (DBA-1 strain) were subcutaneously-injected with 100 μg collagen per mouse on D0. The hind paw thickness at the ankle level was regularly measured with a caliper. When the ankle thickness had reached around 4 mm (T0, i.e., 30 to 50 days after the collagen injection on D0), mice were daily intraperitoneally-injected for 10 days (T0 to T10) with either vehicle (NaCl 0.9%), Dex, CpdX, CpdX(eA), CpdX(eB), CpdX-D3, CpdX-D3(eA) or CpdX-D3(eB) (1 mg/kg body weight diluted in NaCl 0.9%), and the hind paw thickness at the ankle level was daily measured with a caliper. Pictures of the hind paws were taken at days T0 and T10 (before and after the treatment with either Vehicle, Dex, CpdX, CpdX(eA), CpdX(eB), CpdX-D3, CpdX-D3(eA) or CpdX-D3(eB)), in order to assess the course of swelling.
RNA transcripts were extracted from whole hind paws of collagen-untreated and collagen-treated mice at T0 and T10. IL-1β, IL-6, IL-17a, IL-17f and TNFα transcripts were analyzed by q-RT-PCR.

Data set [5] in a line: Body weight and body composition after three-month treatment (pDEXA). It is filed as in vivo, B6 male mice. Particulars: s.c. 1 mg/kg daily, 3 months, pDEXA. As for the experimental part: B6 male mice (8-week-old) were daily subjected for three months to a subcutaneous injection of either vehicle (NaCl 0.9%), Dex, CpdX or CpdX-D3 (1 mg/kg body weight, diluted in vehicle. A pDEXA machine was used to determine the lean mass and fat mass. The statistical significance was calculated through Krustal-Walis test followed by a Dunn's multiple comparison test, *p<0.05; **p<0.01; ***p<0.001.

Data set [6] can be described thus: Blood glucose and intraperitoneal glucose tolerance test (IPGTT) after three-month treatment. In kind it is in vivo, B6 male mice. Particulars: three months; glucose i.p. injection. On the procedure: B6 male mice (8-week-old) were daily subjected for three months to a subcutaneous injection of either vehicle (NaCl 0.9%), Dex, CpdX, CpdX(eA), CpdX(eB), CpdX-D3, CpdX-D3(eA) or CpdX-D3(eB) (1 mg/kg body weight, diluted in vehicle). Mice were over-night-fasted. Mouse blood glucose concentration was measured before (To) and during two hours (T120) after glucose i.p. injection ([…]).

The test system of data set [7] is liver. Nature of the data set: Fatty liver after three-month treatment (red oil staining, q-RT-PCR, plasma cholesterol and bile acids). In kind it is in vivo, B6 male mice. Particulars: s.c. 1 mg/kg daily, three months. As for the experimental part:
B6 male mice (8-week-old) were daily subjected for three months to a subcutaneous injection of either vehicle (NaCl 0.9%), Dex, CpdX, CpdX(eA), CpdX(eB), CpdX-D3, CpdX-D3(eA) or CpdX-D3(eB) (1 mg/kg body weight, diluted in vehicle). Following this treatment, blood was collected at 10 a.m. by retro-orbital puncture in lithium-heparin coated vials. The plasmatic levels of total cholesterol and bile acids were determined.
Liver samples were harvested. […] RNA transcripts were extracted from liver samples and the transcripts of fatty acid synthase (FASN) and Stearoyl-CoA desaturase 1 (SCD1) genes were analyzed by q-RT-PCR.

Molecules are shown by their SMILES.

In the case of `COc1ccc(F)cc1C(C)(C)CC(O)(CNc1ccc2c(c1)COC2=O)C(F)(F)F` (racemic) [CpdX, 5-[4-(5-fluoro-2-methoxyphenyl)-2-hydroxy-4-methyl-2-(trifluoromethyl)pentylamino]-isobenzofuran-1(3H)-one], in data set [1], the “TPA-induced ear skin inflammation, histological analysis” value is given as “significantly decreased”; the “expression of TSLP in TPA-treated mouse epidermis (immunochemistry)” value was “similarly strongly decreased”; the “TPA-induced transcription of pro-inflammatory genes (CCL4, COX2, MMP13, IL-1β, IL-6, TNF-α, TSLP, IL-22, IL-23)” value is on record as “repressed, as efficiently as Dex”; the TPA-induced skin inflammation entry was “significantly decreased”. Also, in data set [2], the “MC 903-induced ear skin inflammation, histological analysis” value was “decreased”; the “expression of the TSLP lymphokine in MC 903-treated mouse epidermis (immunohistochemistry)” value was “similarly strongly decreased”; the “MC 903-induced transcription of pro-inflammatory genes (MMP13, COX2, IL-1β, IL-6, IL-10, IL-13 and TSLP)” value is listed as “repressed, as efficiently as Dex”; the “MC 903-induced skin inflammation” value is “significantly decreased”. Moreover, in data set [3], the “Aldara-induced psoriasis-like skin inflammation, histological analyses” value is reported as “could reduce”; the “induced expression of the Th17 cytokines IL-17a, IL-17c, IL-17f and IL-22” value is recorded as “similarly reduced”; the “Aldara-induced psoriasis-like skin inflammation” value is listed as “significantly decreased”. Also, in data set [4], the “hind paw thickness at the ankle level” value was “rapid decrease” and the “RNA transcripts of pro-inflammatory genes in hind paws (IL-1β, IL-6, IL-17a, IL-17f, TNFα)” value (from here on “RNA transcripts”) is “similarly repressed”. Further, in data set [5], the “fat mass / fat percentage, change from baseline” value is listed as “commensurate increase” and the “lean mass / lean percentage, change from baseline” value is listed as “commensurate increase”. Moreover, the “blood glucose level during two-hour IPGTT” value in data set [6] is recorded as “no significant difference”. Moreover, the “lipid deposition in the liver (5% red oil staining)” value in data set [7] is on record as “not observed”.

On to `[2H]C([2H])([2H])Oc1ccc(F)cc1C(C)(C)CC(O)(CNc1ccc2c(c1)COC2=O)C(F)(F)F` (racemic) [CpdX-D3, 5-{4-[2-(methoxy-D3)-5-fluorophenyl]-2-hydroxy-4-methyl-2-(trifluoromethyl)pentylamino}isobenzofuran-1(3H)-one], for which, in data set [1], the “TPA-induced ear skin inflammation, histological analysis” value was “significantly decreased”; the “expression of TSLP in TPA-treated mouse epidermis (immunochemistry)” value is “similarly strongly decreased”; the “TPA-induced transcription of pro-inflammatory genes (CCL4, COX2, MMP13, IL-1β, IL-6, TNF-α, TSLP, IL-22, IL-23)” value was “repressed, as efficiently as Dex”; the TPA-induced skin inflammation result was “significantly decreased”. Besides, in data set [2], the “MC 903-induced ear skin inflammation, histological analysis” value is “decreased”; the “expression of the TSLP lymphokine in MC 903-treated mouse epidermis (immunohistochemistry)” value was “similarly strongly decreased”; the “MC 903-induced transcription of pro-inflammatory genes (MMP13, COX2, IL-1β, IL-6, IL-10, IL-13 and TSLP)” value is given as “repressed, as efficiently as Dex”; the “MC 903-induced skin inflammation” value is recorded as “significantly decreased”. In addition, in data set [3], the “Aldara-induced psoriasis-like skin inflammation, histological analyses” value is reported as “could reduce”; the “induced expression of the Th17 cytokines IL-17a, IL-17c, IL-17f and IL-22” value is “similarly reduced”; the “Aldara-induced psoriasis-like skin inflammation” value was “significantly decreased”. Moreover, in data set [4], the “hind paw thickness at the ankle level” value is “rapid decrease” and the “RNA transcripts” value is “similarly repressed”. In addition, in data set [5], the “fat mass / fat percentage, change from baseline” value is listed as “commensurate increase” and the “lean mass / lean percentage, change from baseline” value is given as “commensurate increase”. In addition, the “blood glucose level during two-hour IPGTT” value in data set [6] was “no significant difference”. Besides, the “lipid deposition in the liver (5% red oil staining)” value in data set [7] is on record as “not observed”.

`COc1ccc(F)cc1C(C)(C)CC(O)(CNc1ccc2c(c1)COC2=O)C(F)(F)F` (single isomer, unassigned; enantiomer a) [CpdX(eA), 5-[4-(5-fluoro-2-methoxyphenyl)-2-hydroxy-4-methyl-2-(trifluoromethyl)-pentylamino]isobenzofuran-1(3H)-one enantiomer A]: in data set [4] (1 mg/kg), the “RNA transcripts” value is reported as “similarly repressed”. The “blood glucose level during two-hour IPGTT” value in data set [6] was “no significant difference”.

In the case of `[2H]C([2H])([2H])Oc1ccc(F)cc1C(C)(C)CC(O)(CNc1ccc2c(c1)COC2=O)C(F)(F)F` (single isomer, unassigned; enantiomer a) [CpdX-D3(eA), 5-{4-[2-(methoxy-D3)-5-fluorophenyl]-2-hydroxy-4-methyl-2-(trifluoromethyl)pentylamino}isobenzofuran-1(3H)-one enantiomer A], the “RNA transcripts” value in data set [4] (1 mg/kg) was “similarly repressed”. The “blood glucose level during two-hour IPGTT” value in data set [6] is reported as “no significant difference”.
